Assay results as given in ChEMBL document CHEMBL5046301, “pH-Responsive Antimicrobial Peptide with Selective Killing Activity for Bacterial Abscess Therapy” (J Med Chem, 2022).
Activity calls are given as the source filed them. No cut-off for these calls is given here.

Columns and labels:
[1] = system: Staphylococcus epidermidis; assay: Antibacterial activity against Staphylococcus epidermidis ATCC 12228 assessed as inhibition of bacterial growth at pH 6.5 incubated for 24 hrs by NCCLS protocol based method; type: functional
Staphylococcus aureus [2] = assay: Antibacterial activity against methicillin-resistant Staphylococcus aureus ATCC 43300 assessed as inhibition of bacterial growth at pH 7.4 incubated for 24 hrs by NCCLS protocol based method; type: functional
Salmonella typhimurium [3] = assay: Antibacterial activity against Salmonella enterica subsp. enterica serovar Typhimurium C77-31 assessed as inhibition of bacterial growth at pH 7.4 incubated for 24 hrs by NCCLS protocol based method; type: functional
Staphylococcus aureus [4] = assay: Antibacterial activity against Staphylococcus aureus ATCC 25923 assessed as inhibition of bacterial growth at pH 7.4 incubated for 24 hrs by NCCLS protocol based method; type: functional
Salmonella typhimurium [5] = assay: Antibacterial activity against Salmonella enterica subsp. enterica serovar Typhimurium C77-31 assessed as inhibition of bacterial growth at pH 6.5 incubated for 24 hrs by NCCLS protocol based method; type: functional
Escherichia coli = assay: Antibacterial activity against Escherichia coli ATCC 25922 assessed as inhibition of bacterial growth at pH 6.5 incubated for 24 hrs by NCCLS protocol based method; type: functional
Pseudomonas aeruginosa [6] = assay: Antibacterial activity against Pseudomonas aeruginosa ATCC 27853 assessed as inhibition of bacterial growth at pH 6.5 incubated for 24 hrs by NCCLS protocol based method; type: functional
Staphylococcus aureus [7] = assay: Antibacterial activity against Staphylococcus aureus ATCC 29213 assessed as inhibition of bacterial growth at pH 6.5 incubated for 24 hrs by NCCLS protocol based method; type: functional
Staphylococcus aureus [8] = assay: Antibacterial activity against Staphylococcus aureus ATCC 25923 assessed as inhibition of bacterial growth at pH 6.5 incubated for 24 hrs by NCCLS protocol based method; type: functional
Staphylococcus aureus [9] = assay: Antibacterial activity against methicillin-resistant Staphylococcus aureus ATCC 43300 assessed as inhibition of bacterial growth at pH 6.5 incubated for 24 hrs by NCCLS protocol based method; type: functional
[10] = Hemolytic activity in human RBC assessed as hemoglobin release at pH 7.4 incubated for 1 hr; type: toxicity, cell-based; conditions: erythrocyte, pH 7.4, 1 h
[11] = Hemolytic activity against human RBC assessed as hemoglobin release at pH 6.5 incubated for 1 hrs; type: toxicity, cell-based; conditions: erythrocyte, pH 6.5, 1 h
[12] = Cytotoxicity against mouse RAW264.7 cells assessed as inhibition of cell growth at pH 6.5 measured after 24 hrs by MTT assay; type: toxicity, cell-based
Pseudomonas aeruginosa [13] = assay: Antimicrobial activity against Pseudomonas aeruginosa ATCC 27853 assessed as reduction in bacterial growth at pH 6.5 in presence of KCl; type: functional, organism-based
Pseudomonas aeruginosa [14] = assay: Antimicrobial activity against Pseudomonas aeruginosa ATCC 27853 assessed as reduction in bacterial growth at pH 6.5 in presence of NH4Cl; type: functional, organism-based
Pseudomonas aeruginosa [15] = assay: Antimicrobial activity against Pseudomonas aeruginosa ATCC 27853 assessed as reduction in bacterial growth at pH 6.5 in presence of FeCl3; type: functional, organism-based
Lipopolysaccharide (LPS) = assay: Displacement of BODIPY-TR-cadaverin from Pseudomonas aeruginosa ATCC 27316 Lipopolysaccharide at 1 to 64 uM at pH 6.5 incubated for 1 hr by fluorescence based analysis relative to control; conditions: dose 1-64 µM
Cell membrane [16] = assay: Induction of outer membrane permeabilization in Pseudomonas aeruginosa ATCC 27853 assessed as pH responsive ability by measuring fold increase in NPN uptake at 64 uM by NPN-dye based fluorescence analysis relative to control; type: subcellular
Cell membrane [17] = assay: Induction of cytoplasmic membrane depolarization in Pseudomonas aeruginosa ATCC 27853 assessed as increase in fluorescence intensity at acidic and alkaline pH by DiSC3-5 dye based fluorescence assay; type: subcellular; conditions: TDE = time-dependent effect
Pseudomonas aeruginosa [18] = assay: Induction of morphological changes in Pseudomonas aeruginosa ATCC 27853 assessed as disruption in cell membrane at 2 uM at pH 6.5 incubated for 1 hr by SEM analysis; type: functional, organism-based
Pseudomonas aeruginosa [19] = assay: Induction of morphological changes in Pseudomonas aeruginosa ATCC 27853 assessed as plasma membrane collapse at 2 uM at pH 7.4 incubated for 1 hr by TEM analysis; type: functional, organism-based
Pseudomonas aeruginosa [20] = assay: Induction of morphological changes in Pseudomonas aeruginosa ATCC 27853 assessed as plasma membrane collapse at 2 uM at pH 6.5 incubated for 1 hr by TEM analysis; type: functional, organism-based
Pseudomonas aeruginosa [21] = assay: Antimicrobial activity against Pseudomonas aeruginosa ATCC 27853 infected in ICR cutaneous abscess mouse model assessed as reduction in colony forming units at 5 mg/kg,ip administered twice a day measured after 72 hrs (reference value: 5.08 +/ 1.84 10^10 CFU/mL ); type: functional
Pseudomonas aeruginosa [22] = assay: Antipseudomonal activity against Pseudomonas aeruginosa ATCC 27853 infected in ICR cutaneous abscess mouse model assessed as reduction in lesion area at 5 mg/kg,ip administered twice a day measured after 72 hrs (reference value: […]); type: functional
Pseudomonas aeruginosa [23] = assay: Antipseudomonal activity against Pseudomonas aeruginosa ATCC 27853 infected in ICR cutaneous abscess mouse model assessed as fold reduction in colony forming unit at 5 mg/kg,ip administered twice a day measured after 72 hrs relative to control; type: functional
Mus musculus [24] = assay: Antiinflammatory activity in ICR cutaneous abscess mouse model assessed as reduction in IL-1alpha expression in serum at 5 mg/kg,ip administered twice a day measured after 72 hrs by ELISA (reference value: 9.9 +/ 0.42 10^1pg/ml); type: functional
Mus musculus [25] = assay: Antiinflammatory activity in ICR cutaneous abscess mouse model assessed as reduction in IL-1beta expression in serum at 5 mg/kg,ip administered twice a day measured after 72 hrs by ELISA (reference value: 9.9 +/ 0.47 10^1pg/ml); type: functional
Pseudomonas aeruginosa [26] = assay: Antimicrobial activity against Pseudomonas aeruginosa ATCC 27853 infected in ICR cutaneous abscess mouse model assessed as reduction in necrotic tissue area in infection site at 5 mg/kg,ip administered twice a day measured after 3 days by hematoxylin and eosin staining based analysis; type: functional, organism-based; conditions: time 3.0 day
Pseudomonas aeruginosa [27] = assay: Antimicrobial activity against Pseudomonas aeruginosa ATCC 27853 infected in ICR cutaneous abscess mouse model assessed as complete epidermis structure at 5 mg/kg,ip administered twice a day measured after 3 days by hematoxylin and eosin staining based analysis; type: functional, organism-based; conditions: time 3.0 day
[28] = Toxicity in ICR cutaneous abscess mouse model assessed as reduction in epidermal cell apoptosis at 10 mg/kg,sc measured after 24 hrs by TUNEL assay; type: organism-based; conditions: in vivo
Cell membrane [29] = assay: Induction of outer membrane permeabilization in Pseudomonas aeruginosa ATCC 27853 assessed as increase in NPN uptake by NPN-dye based fluorescence analysis; type: subcellular; conditions: dose 1-64 µM
Pseudomonas aeruginosa [30] = assay: Induction of morphological changes in Pseudomonas aeruginosa ATCC 27853 assessed as change in intracellular contents at 2 uM at pH 7.4 incubated for 1 hr by TEM analysis; type: functional, organism-based
Pseudomonas aeruginosa [31] = assay: Induction of morphological changes in Pseudomonas aeruginosa ATCC 27853 assessed as change in intracellular contents at 2 uM at pH 6.5 incubated for 1 hr by TEM analysis; type: functional, organism-based

H-FLEHLIPHVIHGLVHAIHH-NH2
MIC [1]: > 64 µM
MIC (Staphylococcus aureus [2]): > 64 µM
MIC (Salmonella typhimurium [3]): > 64 µM
MIC (Staphylococcus aureus [4]): > 64 µM
MIC (Salmonella typhimurium [5]): 8 µM
MIC (Escherichia coli): 2 µM
MIC (Pseudomonas aeruginosa [6]): 2 µM
MIC (Staphylococcus aureus [7]): > 64 µM
MIC (Staphylococcus aureus [8]): > 64 µM
MIC (Staphylococcus aureus [9]): 64 µM
MHC10 [10]: > 128 µM
MHC10 [11]: > 128 µM
IC50 at 24 h [12]: > 128 µM
Activity (Pseudomonas aeruginosa [13]): inactive
Activity (Pseudomonas aeruginosa [14]): Active
Activity (Pseudomonas aeruginosa [15]): Active
Activity (Lipopolysaccharide (LPS)): 100%
Activity (Cell membrane [16]): 65.9%
Activity (Cell membrane [17]): Tde
Activity (Pseudomonas aeruginosa [18]): Active
Activity (Pseudomonas aeruginosa [19]): inactive
Activity (Pseudomonas aeruginosa [20]): Active
Activity (Pseudomonas aeruginosa [21]): 2.16 10^9CFU/ml
Activity (Pseudomonas aeruginosa [22]): 2.97 10^1/mm2
fold change (FC) (Pseudomonas aeruginosa [23]): 10
Activity (Mus musculus [24]): 6.67 10^1pg/ml
Activity (Mus musculus [25]): 6.93 10^1pg/ml
Activity (Pseudomonas aeruginosa [26]): Active
Activity (Pseudomonas aeruginosa [27]): Active
Activity [28]: Non-Toxic
Activity (Cell membrane [29]): Dose-Dependent Effect
Activity (Pseudomonas aeruginosa [30]): inactive
Activity (Pseudomonas aeruginosa [31]): Active
